Data as given in patent publication US20050090428A1, “Porphyrins with virucidal activity” (priority 2002, published 2005).

Tests used:
89.6 Env = 89.6 Env (Human immunodeficiency virus type 1 group M subtype B, UniProt Q73372); assay type: cell-based, HIV-1
HSV-1(F) or HSV-2(G) = assay: In vitro HSV inactivation, plaque assay on Vero cells; assay type: cell-based, herpes simplex virus; conditions: room temperature, in the dark, up to 60 minutes
Protocol: Either HSV-1(F) or HSV-2(G) (10^7 pfu) was mixed with 1 ml of porphyrin at the concentration indicated in Dulbecco's modified Eagle's medium (DME) with 1% newborn calf serum. All assays were performed in duplicate. All tubes were wrapped in foil to keep out light, and ambient room light was reduced as much as was practicable. Virus and porphyrin were incubated together at room temperature for times up to 60 minutes (Table 2). Following incubation, 10 fold serial dilutions were performed in DME with 1% newborn serum, using tubes wrapped in foil. Virus was diluted 20,000 fold and plated on Vero cells. Following a 2 hour incubation with the cells, the inoculum was removed and cells were overlaid with DME with 1% newborn calf serum and 0.2% human gamma globulin. Cells were fixed and stained, and plaques counted, 2 days after infection.

MAGI cells = assay: Trypan blue exclusion cytotoxicity test; conditions: four concentrations of porphyrin
Protocol: A standard trypan blue exclusion test (Strober, Trypan blue exclusion test of cell viability, p. A.3.3-A.3.4, in J. E. Coligan and A. M. Kruisbeek (ed.), Current protocols in immunology, Wiley-Greene, New York, N.Y., 1994) was used. Compounds at a concentration of 50 μg/ml in growth medium were added to a 96-well plate with MAGI cells. After 72 hr cells were detached by standard trypsin solution (0.25% trypsin-0.05% EDTA) and diluted 1:10 in growth medium. To test cell viability, 1 part of 0.4% trypan blue and 9 parts of diluted cells were mixed, incubated the mixture about 2 min at room temperature, and applied a drop of the trypan blue/cell mixture to a hemacytometer. Using a binocular microscope, the stained (nonviable) and unstained (viable) cells were then counted. The fraction of viable cells was calculated as the number of unstained cells in the wells treated with compound as a percentage of the number in control wells.
The selective index value was defined as the CC50/EC50 ratio.
A trypan blue exclusion test to determine possible toxicity of the test compounds. Compounds at a concentration of 50 μg/ml in growth medium were added to MAGI cells. […] After 72 hr, a trypan blue assay was used to compare cell viability in cells treated with compounds to untreated cells.

HIV-1 IIIB = assay: Screening for virucidal activity against HIV-1 IIIB, MAGI cell assay
[1] = biological target: T1, HIV-1 Env protein (HXB2 Env) (Human immunodeficiency virus type 1 group M subtype B, UniProt P04578); assay type: cell-based
T1 construct: expressed in transfected cells; host or cells: 293T cells transfected with pIIIenv3-1 plus pCMVTAT; cocultured with 3T3 cells expressing CD4 and CXCR4

[2] = biological target: T2, binding of HIV-1 IIIB gp120 to CD4 (Human immunodeficiency virus type 1 group M subtype B, UniProt P04578); assay: gp120-CD4 binding assay (ELISA); conditions: 1 hr at room temperature
T2 construct: The recombinant IIB gp120 protein (baculovirus-expressed) was obtained from Intracel; purchased Intracel (Cambridge, Mass.) for gp120; host or cells: baculovirus-expressed (gp120)
Protocol: To investigate the possible effect of porphyrin compounds on binding of HIV-1 IIIB gp120 to CD4, a gp120 CD4 binding assay was developed. The assay was developed as a modification of a capture gp120 ELISA kit (Intracel Corporation). Briefly, a 96-well plate was coated with soluble CD4 and 0.5 μg of HIV-1 IIIB gp120 per well was incubated in the presence or absence of test compounds for 1 hr at room temperature. After four washes with buffer to remove unbound proteins, the bound gp120 was detected by anti-gp120 peroxidase-conjugated antibodies and quantitated by the protocol provided by the manufacturer.

IIIB Env of HIV 1 = IIIB Env of HIV 1 (Human immunodeficiency virus type 1 group M subtype B, UniProt P03375); assay type: cell-based
HIV-189.6 = assay: Inactivation of HIV-1 89.6 infectivity; assay type: cell-based
SIVmac1A11 = assay: Inactivation of SIVmac1A11 infectivity; assay type: cell-based, SIV

89.6 Env, sequence (Q73372 32-719 limits assumed): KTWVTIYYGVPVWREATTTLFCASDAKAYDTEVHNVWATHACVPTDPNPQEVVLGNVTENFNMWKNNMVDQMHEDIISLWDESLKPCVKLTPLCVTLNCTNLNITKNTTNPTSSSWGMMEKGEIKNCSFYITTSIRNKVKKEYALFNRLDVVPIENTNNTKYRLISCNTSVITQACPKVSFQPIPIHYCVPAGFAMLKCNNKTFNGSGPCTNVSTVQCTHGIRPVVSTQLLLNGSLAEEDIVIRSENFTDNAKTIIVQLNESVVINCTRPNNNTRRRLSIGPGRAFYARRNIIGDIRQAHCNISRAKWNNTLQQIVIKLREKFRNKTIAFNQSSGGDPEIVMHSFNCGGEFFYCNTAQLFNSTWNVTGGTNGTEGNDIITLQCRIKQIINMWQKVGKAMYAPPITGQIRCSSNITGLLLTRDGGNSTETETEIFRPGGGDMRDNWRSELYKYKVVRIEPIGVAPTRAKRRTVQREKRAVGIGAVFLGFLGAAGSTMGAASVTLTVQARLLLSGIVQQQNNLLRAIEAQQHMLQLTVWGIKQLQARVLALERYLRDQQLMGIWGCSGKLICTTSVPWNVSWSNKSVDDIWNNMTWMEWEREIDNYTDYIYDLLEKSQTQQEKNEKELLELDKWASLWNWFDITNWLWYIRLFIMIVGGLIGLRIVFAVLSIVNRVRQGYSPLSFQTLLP
89.6 Env, sequence (Q73372 509-719 partner limits assumed): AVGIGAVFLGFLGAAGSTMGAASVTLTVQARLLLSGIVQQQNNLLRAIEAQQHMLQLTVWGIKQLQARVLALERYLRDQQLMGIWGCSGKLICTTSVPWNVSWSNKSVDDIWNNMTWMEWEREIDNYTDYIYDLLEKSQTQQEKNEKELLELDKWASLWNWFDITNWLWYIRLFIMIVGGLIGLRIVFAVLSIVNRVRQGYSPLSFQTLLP

O=S(=O)(O)c1ccc(-c2c3nc(c(-c4ccc(S(=O)(=O)O)cc4)c4ccc([nH]4)c(-c4ccc(S(=O)(=O)O)cc4)c4nc(c(-c5ccccc5)c5ccc2[nH]5)C=C4)C=C3)cc1 [TPPS3, meso-tetraphenylporphyrin trisulfonate]
Presence of nuclei in syncytia, VV89.6 envt R5, 6 h (89.6 Env): −/4+ | Presence of nuclei in syncytia, VV89.6 envt R5, 23 h (89.6 Env): −/4+ (key: 4+: more than 50% of nuclei are in syncytia; 3+: 30 to 50% of nuclei are in syncytia; 2+: 30 to 10% of nuclei are in syncytia; +: less than 10% of nuclei are in syncytia; −: no syncytia were observed) | Presence of nuclei in syncytia, VV89.6 envt X4, 23 h (89.6 Env): 1+/4+ (key: 4+: more than 50% of nuclei are in syncytia; 3+: 30 to 50% of nuclei are in syncytia; 2+: 30 to 10% of nuclei are in syncytia; +: less than 10% of nuclei are in syncytia; −: no syncytia were observed) | inactivating HSVs (HSV-1(F) or HSV-2(G)): active | CC50 (concentration that reduced the viability of cells by 50%) (MAGI cells): 50 µg/mL | selective index CC50/EC50 (HIV-1 IIIB): 10 | Presence of nuclei in syncytia, pIIIenv X4, 6 h [1]: −

sulfonated 5,10,15,20-tetra-naphthalen-1-yl-porphyrin [TNapPS]
inhibition of gp120/CD4 binding in words [2]: completely inhibit binding | CC50 (concentration that reduced the viability of cells by 50%) (MAGI cells): 75 µg/mL | inhibition of HIV-induced cell fusion in words (IIIB Env of HIV 1): Complete inhibition | activity at low concentration (HIV-1 IIIB; 0.5 μg/ml, HIV-1 IIIB, MAGI cells): significant activity | kinetics of inactivation of HIV-1 IIIB (HIV-1 IIIB; 2 to 60 minutes): inhibited viral growth almost completely | activity against HIV in words (HIV-1 IIIB; MAGI screening assay, HIV-1 IIIB): most active | infected cells remaining (HIV-1 IIIB; after 2 min incubation): approximately 1% | HIV-1 89.6 inactivated (HIV-189.6): 76% | Presence of nuclei in syncytia, pIIIenv X4, 6 h [1]: − | inhibition of HIV-induced cell fusion in words [1]: complete inhibition | SIVmac1A11 inactivated (SIVmac1A11): 88%
